Reference: patent US20110160249A1, “5-LIPOXYGENASE-ACTIVATING PROTEIN INHIBITOR” (priority 2008, published 2011)
Read-outs that look alike come from different tables or passages of the source. Marks after values point to notes of the source that are not given here.

Legend:
[1] = Single dose kinetics in beagle dogs; type: in vivo; conditions: female, dog, plasma, Fasted
[2] = test system: LTB4 in Human Whole Blood; test: Human blood LTB4 inhibition assay; type: cell-based; conditions: mean of 8 tests
Method: A non-limiting example of such a human blood LTB4 inhibition assay is as follows: Blood was drawn from consenting, human volunteers into heparinized tubes and 125 μL aliquots added to wells containing 2.5 μL 50% dimethylsulfoxide (vehicle) or 2.5 μL drug in 50% dimethylsulfoxide. Samples were incubated for 15 minutes at 37° C. 2 μL calcium ionophore […] (from a 50 mM dimethylsulfoxide stock diluted just prior to the assay in Flanks balanced salt solution (Invitrogen)) to 1.25 mM) was added, solutions mixed and incubated for 30 minutes at 37° C. Samples were centrifuged at 1,000 rpm (−200×g) for 10 minutes at 4° C., plasma removed and a 1:100 dilution assayed for LTB4 concentration using ELISA (Assay Designs). Drug concentrations to achieve 50% inhibition (IC50's) of vehicle LTB4 were determined by nonlinear regression (Graphpad Prism) of % inhibition versus log drug is concentration.

Solubility vs. pH = type: physicochemical; conditions: 0.15 M aqueous sodium chloride, saline or isotonic, thermodynamic from solid, 0.15M sodium chloride (aqueous), read-out: Solubility, Concentration
Method: Suspensions were made up in 0.15M sodium chloride (aqueous) and the pH adjusted to the appropriate value with either diluted hydrochloric acid or sodium hydroxide, to ensure that different salt forms with different solubilities are not produced in solution. The suspension was then allowed to equilibrate for 2 h, and the pH was checked and re-adjusted if required.
The pH of the resultant solution was measured, and the solubility was calculated by HPLC-UV assay of the compound concentration in solution.

[3] = pKa and log P of the sodium salt; type: physicochemical
[4] = test system: whole blood ionophore-stimulated leukotriene LTB4; test: Phase I study, whole blood ionophore-stimulated LTB4; type: in vivo, human; conditions: for Emax / EC50 / EC90: Homo sapiens; for Emax: read-out: Emax (%), maximum inhibition of LTB4; for EC50: read-out: EC50 (ng/mL), concentration at which 50% inhibition was reached; for LTB4 level at t = 24 hrs. (% of baseline): oral solution
Excerpt: Study Design: Single center, double-blind, randomized, placebo-controlled, single ascending dose followed by multiple ascending dose study.
Sample Size: (1) Single Dose Phase: eight (8) subjects (6 active, 2 placebo) per dose level; up to 5 dose levels are planned (a total of 40 subjects if all 5 dose levels are completed); and (2) Multiple Dose Phase: eight (8) subjects (6 active, 2 placebo) per dose level; up to 4 dose levels are planned (a total of 32 subjects if all 4 dose levels are completed).
Formulations: Compound 2 was supplied as an oral powder for reconstitution. Placebo solution matched. […] The placebo differed only in the absence of the active.
The following dosing cohorts were used:
Routes of Administration: All doses were administered orally with approximately 100 mL of water rinse. Subjects were fasted for at least 8 hours prior to dosing and for 2 hours after dosing. For BID dosing in the Multiple Dose Phase, when applicable, subjects were fasted for at least 2 hours prior to the second daily dose.
Plasma concentrations of Compound 1 were determined using a validated LC/MS method. Whole blood ionophore-stimulated leukotriene LTB4 and urinary LTE4 production were assayed by ELISA and mass spectrometry, respectively.
Analysis of Samples: Concentrations of Compound 1 was determined in plasma samples collected from subjects. Similarly, concentrations of LTB4 in plasma and urinary LTE4 were determined in blood and urine samples collected.

[5] = IV, 4:1 PEG400:Water, 0.67 mg/kg
[6] = Multiple dose part, Day 1, 10 mg
[7] = Multiple dose part, Day 1, 50 mg
[8] = Multiple dose part, Day 1, 150 mg
[9] = Multiple dose part, Day 1, 450 mg
[10] = Multiple dose part, Day 11, 10 mg
[11] = Multiple dose part, Day 11, 50 mg
[12] = Multiple dose part, Day 11, 150 mg
[13] = Multiple dose part, Day 11, 450 mg
[14] = Single dose part, Day 1, 600 mg
[15] = Single dose part, Day 1, 1000 mg

Structure (SMILES): CCOc1ccc(-c2ccc(Cn3c(CC(C)(C)C(=O)[O-])c(SC(C)(C)C)c4cc(OCc5ccc(C)cn5)ccc43)cc2)cn1.[Na+] [Compound 2, sodium 3-[3-(tert-butylsulfanyl)-1-[4-(6-ethoxy-pyridin-3-yl)benzyl]-5-(5-methyl-pyridin-2-yl-methoxy)-1H-indol-2-yl]-2,2-dimethylpropionate]
- AUC(0-inf) [1, 5]: 17600 ng·h/mL
- Cmax [1, 5]: 12000 ng/mL
- Tmax [1, 5]: 1.02 min
- bioavailability [1, 5]: 100%
- clearance ([1]; IV, 4:1 PEG400:Water, 0.67 mg/kg, read-out: CLp): 0.6 mL/min/kg
- Vd ([1]; IV, 4:1 PEG400:Water, 0.67 mg/kg, read-out: VdSS): 0.2 L/kg
- Cmax ([1]; Oral, 0.5% Methylcellulose, 5 mg/kg): 12400 ng/mL
- IC90 [2]: 1310 nM
- solubility at 2 h (Solubility vs. pH; pH 1.1): 26 µg/mL
- solubility at 2 h (Solubility vs. pH; pH 3.8): < 0.1 µg/mL
- solubility at 2 h (Solubility vs. pH; pH 6.9): 0.7 µg/mL
- solubility at 2 h (Solubility vs. pH; pH 9.0): 3500 µg/mL
- solubility at 2 h (Solubility vs. pH; pH 9.8): > 10000 µg/mL
- solubility at 2 h (Solubility vs. pH; pH 11.2): > 10000 µg/mL
- pKa [3]: 3.45
- Emax ([4]; 24 h, Multiple dose part, Day 1, 10 mg): 60.8%
- Emax ([4]; 24 h, Multiple dose part, Day 1, 50 mg): 89.6%
- Emax ([4]; 24 h, Multiple dose part, Day 1, 150 mg): 98.5%
- Emax ([4]; 24 h, Multiple dose part, Day 1, 450 mg): 97.6%
- EC50 ([4]; 24 h, Multiple dose part, Day 1, Multiple dose total): 51 ng/mL
- Emax ([4]; 24 h, Single dose part, Day 1, 50 mg): 87.9%
- Emax ([4]; 24 h, Single dose part, Day 1, 150 mg): 98.8%
- Emax ([4]; 24 h, Single dose part, Day 1, 300 mg): 102%
- Emax ([4]; 24 h, Single dose part, Day 1, 600 mg): 100%
- Emax ([4]; 24 h, Single dose part, Day 1, 1000 mg): 99.6%
- EC50 ([4]; 24 h, Single dose part, Day 1, Single dose total): 90 ng/mL
- EC90 ([4]; 24 h, read-out: EC90 (ng/mL), concentration at which 90% inhibition was reached, Multiple dose part, Day 1, Multiple dose total): 296 ng/mL
- EC90 ([4]; 24 h, read-out: EC90 (ng/mL), concentration at which 90% inhibition was reached, Single dose part, Day 1, Single dose total): 342 ng/mL
- Emax ([4]; 264 h, Multiple dose part, Day 11, 10 mg): 74.4%
- Emax ([4]; 264 h, Multiple dose part, Day 11, 50 mg): 97.9%
- Emax ([4]; 264 h, Multiple dose part, Day 11, 150 mg): 99.7%
- Emax ([4]; 264 h, Multiple dose part, Day 11, 450 mg): 101%
- EC50 ([4]; 264 h, Multiple dose part, Day 11, Multiple dose total): 52 ng/mL
- EC90 ([4]; 264 h, read-out: EC90 (ng/mL), concentration at which 90% inhibition was reached, Multiple dose part, Day 11, Multiple dose total): 308 ng/mL
- Tmax (h), time to reach Emax [4, 6]: 12.00 h
- tE>90% (h), time above 90% LTB4 inhibition [4, 6]: 0.0 h
- Tmax (h), time to reach Emax [4, 7]: 4.00 h
- tE>50% (h), time above 50% LTB4 inhibition [4, 7]: >23.3 h
- tE>90% (h), time above 90% LTB4 inhibition [4, 7]: 0.0 h
- Tmax (h), time to reach Emax [4, 8]: 3.00 h
- tE>50% (h), time above 50% LTB4 inhibition [4, 8]: >23.4 h
- Tmax (h), time to reach Emax [4, 9]: 3.00 h
- tE>50% (h), time above 50% LTB4 inhibition [4, 9]: >23.7 h
- Tmax (h), time to reach Emax [4, 10]: 12.00 h
- tE>90% (h), time above 90% LTB4 inhibition [4, 10]: 0.0 h
- Tmax (h), time to reach Emax [4, 11]: 4.00 h
- tE>90% (h), time above 90% LTB4 inhibition [4, 11]: 10.0 h
- Tmax (h), time to reach Emax [4, 12]: 2.00 h
- tE>50% (h), time above 50% LTB4 inhibition [4, 12]: >72.0 h
- Tmax (h), time to reach Emax [4, 13]: 2.00 h
- tE>50% (h), time above 50% LTB4 inhibition [4, 13]: >72.0 h
- Tmax (h), time to reach Emax ([4]; Single dose part, Day 1, 50 mg): 8.00 h
- tE>90% (h), time above 90% LTB4 inhibition ([4]; Single dose part, Day 1, 50 mg): 0.0 h
- Tmax (h), time to reach Emax ([4]; Single dose part, Day 1, 150 mg): 6.00 h
- Tmax (h), time to reach Emax ([4]; Single dose part, Day 1, 300 mg): 8.00 h
- tE>50% (h), time above 50% LTB4 inhibition ([4]; Single dose part, Day 1, 300 mg, estimated): ~30^# h
- Tmax (h), time to reach Emax [4, 14]: 6.00 h
- tE>50% (h), time above 50% LTB4 inhibition [4, 14]: >71.7 h
- Tmax (h), time to reach Emax [4, 15]: 6.00 h
- tE>50% (h), time above 50% LTB4 inhibition [4, 15]: >71.7 h
- LTB4 level at t = 24 hrs. (% of baseline) ([4]; single dose 50 mg): 37 ± 4.7 % of baseline
- LTB4 level at t = 24 hrs. (% of baseline) ([4]; single dose 150 mg): 24 ± 4.4 % of baseline
- LTB4 level at t = 24 hrs. (% of baseline) ([4]; single dose 300 mg): 23 ± 8.3 % of baseline
- LTB4 level at t = 24 hrs. (% of baseline) ([4]; single dose 600 mg): 1.6 ± 0.98 % of baseline
- LTB4 level at t = 24 hrs. (% of baseline) ([4]; single dose 1000 mg): 1.9 ± 0.41 % of baseline
